One assay has as its system Colo205 cell line. Description: Colo205 cell proliferation assay (MTT assay, WST-8). The format is cell-based. The following applies: Homo sapiens, COLO 205; 72 hours incubation; read-out: Colo 205 Cell Activity (IC50 of growth inhibition in Colo 205 cells). How it is done: Compounds disclosed herein were tested for the inhibition of ERK2 by a Colo205 cell proliferation assay commonly known as MTT assay. In this assay, a complete media was prepared by adding 10% fetal bovine serum to RPMI-1640 medium (Life technology). Colon cancer cells (Colo205 cell line) were added to each of 88 wells of a 96 well plate at a seeding density of 5,000 cells/well/90 μL. The cells were allowed to attach to the plate by incubating at 37° C. for 24 hours. The compound was dissolved in DMSO (SIGMA). A solution of test compound was prepared in complete media by serial dilution to obtain the following concentrations: 500 μM, 150 μM, 50 μM, 15 μM, 5 μM, 1.5 μM, 0.5 μM, 0.15 μM and 0.05 μM. The test compound solution (10 μL) was added to each of 80 cell-containing wells. The final concentrations of the compound were following: 50 μM, 15 μM, 5 μM, 1.5 μM, 0.5 μM, 0.15 μM, 0.05 μM, 0.015 μM and 0.005 μM. The final concentration of DMSO is 0.5%. To the 8 remaining cell-containing wells, only complete media (containing 0.5% DMSO) was added to form a control group in order to measure maximal proliferation. To the remaining 8 empty wells, complete media was added to for a vehicle control group in order to measure background. The plates were incubated at 37° C. for 72 hours. 10 μL WST-8 solution (DOJINDO, Cell Counting KIT-8) was added to each well. The plates were further incubated at 37° C. for 2 hours, and then read for the absorbance using a microplate reader at 450 nm.
The IC50 values of growth inhibition in Colo 205 cells for compounds disclosed are listed in Table 3, A′: ≤0.5 μM; B′: >0.5 μM and ≤1 μM; C′: >1.0 μM and ≤5 uM; D′: >5 μM.

The target of a further assay is T1, human ERK2 (Homo sapiens, UniProt P28482).
T1 construct: recombinantly expressed as GST-tagged full-length protein purified from E. coli; GST; purchased Invitrogen PV3311; host or cells: E. coli
T1 sequence (P28482 whole entry): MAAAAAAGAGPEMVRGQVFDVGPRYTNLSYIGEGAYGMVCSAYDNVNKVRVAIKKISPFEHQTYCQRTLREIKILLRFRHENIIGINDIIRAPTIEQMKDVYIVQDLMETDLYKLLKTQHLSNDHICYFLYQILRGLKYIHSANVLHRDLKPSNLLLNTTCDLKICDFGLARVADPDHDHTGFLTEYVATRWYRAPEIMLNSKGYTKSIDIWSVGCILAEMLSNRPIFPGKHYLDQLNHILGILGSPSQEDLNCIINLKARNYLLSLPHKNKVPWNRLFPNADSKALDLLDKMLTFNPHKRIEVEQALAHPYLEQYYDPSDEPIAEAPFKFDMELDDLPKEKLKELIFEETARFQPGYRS
Description: LanthaScreen TR-FRET ERK2 enzymatic assay. The following applies: 5 μM ATP, one hour reaction; read-out: ERK2 Biochemical Activity (IC50 of ERK2 inhibition). How it is done: Compounds were tested in a LanthaScreen™ time-resolved fluorescence energy transfer (TR-FRET) enzymatic assay from Invitrogen. The assay used human ERK2 (Mitogen Activated Kinase 1, Invitrogen, Cat. PV3311) recombinantly expressed as GST-tagged full-length protein purified from E. coli and activated in vitro with MAP2K1. The substrate was a recombinant truncated version (residues 19-96) of ATF2 fused with Green Fluorescent Protein (Invitrogen, Cat. PV4445). Test compounds were prepared and diluted in DMSO in 3-fold serial dilutions to 100× of the final testing concentrations. The compounds were then further diluted to 4× by the kinase reaction buffer (Invitrogen, Cat. PV3189). The enzymatic reaction for compound testing was performed in a white 384-well polypropylene plate (Packard, Cat. 6005214) with a total reaction volume of 10 μl containing 20 ng/ml ERK2, 400 nM substrate, and 5 μM ATP that is around its Km. The assay started with loading 2.5 μl of ERK2 diluted in kinase reaction buffer to wells, followed by addition of equal volume of 4× compounds for 15-min incubation at the room temperature for pre-treatment. The enzymatic reaction was initiated by addition of 5 μl of mixture of the substrate and ATP prepared in kinase reaction buffer. After one hour reaction, 10 μl mixture of EDTA (final 10 mM) and terbium-labeled anti-pATF2 (pThr71) antibody (final 2 nM) (Invitrogen, Cat. PV4451) prepared in TR-FRET antibody dilution buffer (Invitrogen, Cat. PV3574) was added to stop the enzymatic reaction and produce TR-FRET signals. After 30 minutes of incubation at room temperature, the plate was read in Tecan Infinite F200 Pro with the following settings: Excitation 340 nm (30)/Emission1 495 nm (10)/Emission2 520 nm (25). The TR-FRET values were dimensionless numbers that were calculated as the ratio of the acceptor ([…]) signal to the donor (Terbium) signal. Percent of control was calculated as the percentage of compound-treated vs 1% DMSO vehicle-treated. The dose-response curves were generated and the IC50s were calculated by nonlinear sigmoid curve fitting using GraphPad Prism.
The IC50 values of ERK2 inhibition for compounds disclosed are listed in Table 3, A: ≤10 nM; B: >10 nM and ≤100 nM; C: >100 nM and ≤1 uM; D: >1 μM.
On the technique in general: TR-FRET usually uses a lanthanide donor and a delayed reading to cut background.

Bounds are passed on as bounds.

What is called IC50 is the concentration needed to halve the response being measured.

As for `Cn1nccc1Nc1nccc(-c2cc3c(s2)C(C)(C)N(CCN[C@H](CO)c2cccc(Cl)c2)C3=O)n1` [Example 17, (S)-5-(2-((1-(3-chlorophenyl)-2-hydroxyethyl)amino)ethyl)-6,6-dimethyl-2-(2-((1-methyl-1H-pyrazol-5-yl)amino)pyrimidin-4-yl)-5,6-dihydro-4H-thieno[2,3-c]pyrrol-4-one], the IC50 in the assay with Colo205 cell line was in the range of 500 to 1000 nM.
For `Cn1nccc1Nc1nccc(-c2cc3c(s2)C(C)(C)N(Cc2ccnc(C(F)(F)F)n2)C3=O)n1` [Example 6, 6,6-dimethyl-2-(2-((1-methyl-1H-pyrazol-5-yl)amino)pyrimidin-4-yl)-5-((2-(trifluoromethyl)pyrimidin-4-yl)methyl)-5,6-dihydro-4H-thieno[2,3-c]pyrrol-4-one], the IC50 with Colo205 cell line was not above 500 nM; on human ERK2, not above 10 nM.
The like results for `CC(c1ccnc(C(F)(F)F)c1)N1C(=O)c2cc(-c3ccnc(Nc4ccnn4C)n3)sc2C1(C)C` (racemic) [Example 9, 6,6-dimethyl-2-(2-(1-methyl-1H-pyrazol-5-ylamino)pyrimidin-4-yl)-5-(1-(2-(trifluoromethyl)pyridin-4-yl)ethyl)-5,6-dihydro-4H-thieno[2,3-c]pyrrol-4-one] were, in that order, not above 500 nM and not above 10 nM.
On to `Cn1nccc1Nc1nccc(-c2cc3c(s2)C(C)(C)N(Cc2cccc(C(F)(F)F)n2)C3=O)n1` [Example 3, 6,6-dimethyl-2-(2-((1-methyl-1H-pyrazol-5-yl)amino)pyrimidin-4-yl)-5-((6-(trifluoromethyl)pyridin-2-yl)methyl)-5,6-dihydro-4H-thieno[2,3-c]pyrrol-4-one], for which the half-maximal inhibitory concentration (IC50) with Colo205 cell line was not above 500 nM; at human ERK2, not above 10 nM.
For `Cn1nccc1Nc1nccc(-c2cc3c(s2)C(C)(C)N(CC(=O)NCc2ccnc(C(F)(F)F)c2)C3=O)n1` [Example 16, 2-(6,6-dimethyl-2-(2-((1-methyl-1H-pyrazol-5-yl)amino)pyrimidin-4-yl)-4-oxo-4H-thieno[2,3-c]pyrrol-5(6H)-yl)-N-((2-(trifluoromethyl)pyridin-4-yl)methyl)acetamide], in the assay with Colo205 cell line, the half-inhibitory concentration (IC50) fell in the range of 1000 to 5000 nM.
Take `CC(c1cccc(C(F)(F)F)n1)N1C(=O)c2cc(-c3ccnc(Nc4ccnn4C)n3)sc2C1(C)C` (stereo not shown) [Example 12, 6,6-dimethyl-2-(2-((1-methyl-1H-pyrazol-5-yl)amino)pyrimidin-4-yl)-5-(1-(6-(trifluoromethyl)pyridin-2-yl)ethyl)-5,6-dihydro-4H-thieno[2,3-c]pyrrol-4-one]: the IC50 in the assay on Colo205 cell line lay in the range of 1000 to 5000 nM.
`CC(c1ccnc(C(F)(F)F)n1)N1C(=O)c2cc(-c3ccnc(Nc4ccnn4C)n3)sc2C1(C)C` (stereo not shown) [Example 13, 6,6-dimethyl-2-(2-((1-methyl-1H-pyrazol-5-yl)amino)pyrimidin-4-yl)-5-(1-(2-(trifluoromethyl)pyrimidin-4-yl)ethyl)-5,6-dihydro-4H-thieno[2,3-c]pyrrol-4-one]: the IC50 in the assay on Colo205 cell line is not above 500 nM; at human ERK2 it was 10 to 100 nM.
Regarding `Cn1nccc1Nc1nccc(-c2cc3c(s2)C(C)(C)N(Cc2nc(C(F)(F)F)cs2)C3=O)n1` [Example 5, 6,6-dimethyl-2-(2-((1-methyl-1H-pyrazol-5-yl)amino)pyrimidin-4-yl)-5-((4-(trifluoromethyl)thiazol-2-yl)methyl)-5,6-dihydro-4H-thieno[2,3-c]pyrrol-4-one], the IC50 with Colo205 cell line was not above 500 nM; at human ERK2, not above 10 nM.
As to `Cn1nccc1Nc1nccc(-c2cc3c(s2)C(C)(C)N(Cc2ccc(C(F)(F)F)nc2)C3=O)n1` [Example 4, 6,6-dimethyl-2-(2-((1-methyl-1H-pyrazol-5-yl)amino)pyrimidin-4-yl)-5-((6-(trifluoromethyl)pyridin-3-yl)methyl)-5,6-dihydro-4H-thieno[2,3-c]pyrrol-4-one], the results for the concentration for half-maximal inhibition (IC50) in the assay on Colo205 cell line and at human ERK2 were 500 to 1000 nM and not above 10 nM, respectively.
As to `Cn1nccc1Nc1nccc(-c2cc3c(s2)C(C)(C)N(Cc2cccc(Cl)c2)C3=O)n1` [Example 2, 5-(3-chlorobenzyl)-6,6-dimethyl-2-(2-(1-methyl-1H-pyrazol-5-ylamino)pyrimidin-4-yl)-5,6-dihydro-4H-thieno[2,3-c]pyrrol-4-one], the IC50 in the assay with Colo205 cell line was not above 500 nM; at human ERK2, not above 10 nM.
With `Cn1nccc1Nc1nccc(-c2cc3c(s2)C(C)(C)N(CCc2ccnc(C(F)(F)F)c2)C3=O)n1` [Example 8, 6,6-dimethyl-2-(2-((1-methyl-1H-pyrazol-5-yl)amino)pyrimidin-4-yl)-5-(2-(2-(trifluoromethyl)pyridin-4-yl)ethyl)-5,6-dihydro-4H-thieno[2,3-c]pyrrol-4-one], the IC50 with Colo205 cell line was 1000 to 5000 nM.
With `CC(C(=O)N[C@H](CO)c1cccc(Cl)c1)N1C(=O)c2cc(-c3ccnc(Nc4ccnn4C)n3)sc2C1(C)C` (stereo partly drawn) [Example 15, N—((S)-1-(3-chlorophenyl)-2-hydroxyethyl)-2-(6,6-dimethyl-2-(2-((1-methyl-1H-pyrazol-5-yl)amino)pyrimidin-4-yl)-4-oxo-4H-thieno[2,3-c]pyrrol-5(6H)-yl)propanamide], in the assay on Colo205 cell line, the IC50 is 500 to 1000 nM.
For the molecule `Cn1nccc1Nc1nccc(-c2cc3c(s2)C(C)(C)N(Cc2cc(C(F)(F)F)no2)C3=O)n1` [Example 7, 6,6-dimethyl-2-(2-((1-methyl-1H-pyrazol-5-yl)amino)pyrimidin-4-yl)-5-((3-(trifluoromethyl)isoxazol-5-yl)methyl)-5,6-dihydro-4H-thieno[2,3-c]pyrrol-4-one], the IC50 is not above 500 nM in the assay with Colo205 cell line and not above 10 nM at human ERK2.
In the case of `Cn1nccc1Nc1nccc(-c2cc3c(s2)C(C)(C)N(CC(=O)N[C@H](CO)c2cccc(Cl)c2)C3=O)n1` [Example 14, (S)—N-(1-(3-chlorophenyl)-2-hydroxyethyl)-2-(6,6-dimethyl-2-(2-((1-methyl-1H-pyrazol-5-yl)amino)pyrimidin-4-yl)-4-oxo-4H-thieno[2,3-c]pyrrol-5(6H)-yl)acetamide], the results for the IC50 with Colo205 cell line and on human ERK2 were not above 500 nM and not above 10 nM, respectively.
On to `Cn1nccc1Nc1nccc(-c2cc3c(s2)C(C)(C)N([C@H](CO)c2cccc(Cl)c2)C3=O)n1` [Example 11, (S)-5-(1-(3-chlorophenyl)-2-hydroxyethyl)-6,6-dimethyl-2-(2-((1-methyl-1H-pyrazol-5-yl)amino)pyrimidin-4-yl)-5,6-dihydro-4H-thieno[2,3-c]pyrrol-4-one], for which, in the assay on Colo205 cell line, the 50% inhibitory concentration (IC50) is not above 500 nM.
For the molecule `Cn1nccc1Nc1nccc(-c2cc3c(s2)C(C)(C)N(Cc2ccnc(C(F)(F)F)c2)C3=O)n1` [Example 1, 6,6-dimethyl-2-(2-(1-methyl-1H-pyrazol-5-ylamino)pyrimidin-4-yl)-5-((2-(trifluoromethyl)pyridin-4-yl)methyl)-5,6-dihydro-4H-thieno[2,3-c]pyrrol-4-one], the IC50 was not above 500 nM in the assay on Colo205 cell line and not above 10 nM at human ERK2.
Regarding `CC(c1nc(C(F)(F)F)cs1)N1C(=O)c2cc(-c3ccnc(Nc4ccnn4C)n3)sc2C1(C)C` (racemic) [Example 10, 6,6-dimethyl-2-(2-(1-methyl-1H-pyrazol-5-ylamino)pyrimidin-4-yl)-5-(1-(4-(trifluoromethyl)thiazol-2-yl)ethyl)-5,6-dihydro-4H-thieno[2,3-c]pyrrol-4-one], the IC50 in the assay with Colo205 cell line is not above 500 nM; on human ERK2, not above 10 nM.

The values above are taken from patent US12133841B2, “Heterocyclic compounds as kinase inhibitors, compositions comprising the heterocyclic compound, and methods of use thereof” (JS INNOMED HOLDINGS LTD., priority 2018, dated 2024).
